Common to all, as to format: in vivo
Test [1] relates to Septoria tritici. In words: Activity against Septoria tritici on wheat (solution pipetted to seedlings in vermiculite). The following applies: inoculated 7 days after treatment, 18 days incubation, control 60. As to the method: (§1) Activity Against Septoria tritici on Wheat The active compound Ia.1 was formulated as a stock solution in dimethyl sulfoxide at a concentration of 10 000 ppm. The stock solution was diluted with water to the stated active compound concentration. 1 ml of the respective solution was pipetted to wheat seedlings grown in vermiculite (10 to 12 seedlings per pot). 7 days after the treatment the wheat plants were inoculated with a spore suspension of Septoria tritici. After 18 days of incubation, the extent of infection was determined visually in %. The concentration is given in g of active compound (g a.i.) per 100 kg of seeds.

In test [2] the test system is Puccinia recondita. Description: Activity against Puccinia recondita on wheat (solution pipetted to seedlings in vermiculite). The following applies: inoculated 7 days after treatment, 7 days incubation, control 80. As to the method:
as §1, with “Puccinia recondita” for “Septoria tritici”, “compounds were” for “compound Ia.1 was”, “acetone” for “dimethyl sulfoxide”, “Puccinia recondita.” for “Septoria tritici.”, “7” for “18”

In test [3] the test system is Phakopsora pachyrhizi. In words: Activity against Phakopsora pachyrhizi on soybean (solution pipetted to seedlings in vermiculite). Conditions: 250 g a.i./100 kg, inoculated 7 days after treatment, 14 days incubation, control 88. On the procedure:
Activity Against Phakopsora pachyrhizi on Soybean
The active compounds were formulated as a stock solution in dimethylsulfoxide at a concentration of 10 000 ppm. The stock solution was diluted with water to the stated active compound concentration. 1 ml of the respective solution was pipetted to soybean seedlings grown in vermiculite (1 seedling per pot). 7 days after the treatment the soybean plants were inoculated with a spore suspension of Phakopsora pachyrhizi. After 14 days of incubation, the extent of infection was determined visually in %. The concentration is given in g of active compound (g a.i.) per 100 kg of seeds.

In test [4] the test system is Puccinia recondita. Description: Activity against Puccinia recondita on wheat (seed treatment). Conditions: 250 g a.i./100 kg seeds, inoculated 14 days after sowing, 7 days incubation, control 90. As to the method: Activity Against Puccinia recondita on Wheat (Seed Treatment) 24 mg of the active compounds listed in table 2 were in each case dissolved in 1 ml of acetone to give a stock solution. The stock solution was diluted with acetone to give the test solution. Aliquots of 4.8 g of wheat seeds were placed in glass vials, where they were treated in an air stream with 1 ml of the test solution containing the active compound. In each case, 10 grains were sown in pots of 8 cm diameter. Untreated grains served as control. […] After 7 days of incubation, the extent of infection was determined visually in %. The concentration is given in g of active compound (g a.i.) per 100 kg of seeds.

For a further test, the system named is Erysiphe graminis. In words: Activity against Erysiphe graminis on wheat (solution pipetted to seedlings in vermiculite). Conditions: inoculated 7 days after treatment, 7 days incubation, control 80. As to the method: as §1, with “Erysiphe graminis” for “Septoria tritici”, “compounds were” for “compound Ia.1 was”, “acetone” for “dimethyl sulfoxide”, “Erysiphe graminis.” for “Septoria tritici.”, “7” for “18”

The test system of test [5] is Phakopsora pachyrhizi. In words: Activity against Phakopsora pachyrhizi on soybean (seed treatment). The following applies: inoculated 14 days after sowing, 10 days incubation, control 87. On the procedure:
Activity Against Phakopsora pachyrhizi on soybean (Seed Treatment)
16 mg of the active compounds listed in table 3 were in each case dissolved in 1 ml of acetone to give a stock solution. The stock solution was diluted with acetone to give the test solution. Aliquots of 1.5 g of soybean seeds were placed in glass vials, where they were treated in an air stream with 0.6 ml of the test solution containing the active compound. In each case, 8 grains were sown in pots of 8 cm diameter. Untreated grains served as control. 14 days after sowing, the soybean plants were inoculated with a spore suspension of Phakopsora pachyrhizi. After 10 days of incubation, the extent of infection was determined visually in %. The concentration is given in g of active compound (g a.i.) per 100 kg of seeds.

In test [6] the test system is Septoria tritici. In words: Activity against Septoria tritici on wheat (seed treatment). Conditions: inoculated 14 days after sowing, 24 days incubation, control 85. As to the method:
Activity Against Septoria tritici on Wheat (Seed Treatment) 9.6 mg of the active compound Ia.90 was dissolved in 1 ml of acetone to give a stock solution. The stock solution was diluted with acetone to give the test solution. Aliquots of 4.8 g of wheat seeds were placed in glass vials, where they were treated in an air stream with 0.5 ml of the test solution containing the active compound. In each case, 10 grains were sown in pots of 8 cm diameter. Untreated grains served as control. 14 days after sowing, the wheat plants were inoculated with a spore suspension of Septoria tritici. After 24 days of incubation, the extent of infection was determined visually in %. The concentration is given in g of active compound (g a.i.) per 100 kg of seeds.

In test [7] the test system is Septoria tritici. In words: Activity against Septoria tritici on wheat (seedlings treated, detached leaf portions on agar inoculated). The following applies: wheat seedlings in vermiculite, leaf portions on agar inoculated 7 days after treatment, 18° C., 18 days incubation, control 100. On the procedure:
as §1, with “acetone” for “dimethyl sulfoxide”, “leaf portions of 5 cm length” for “the wheat plants”, “were placed in petri dishes filled with aqueous agar. The leaf portions were then” for “were”, “tritici. The closed Petri dishes were incubated in a climatized test cabinet at 18° C. and 12 h light exposure per day.” for “tritici.”

On to `Cn1cc(C(=O)Nc2ccccc2-c2cc(F)c(F)c(F)c2)c(C(F)F)n1` [Ia.90], for which the Infected leaf area in the test on Septoria tritici [1] (125 g a.i./100 kg) is 0%; with Septoria tritici [1] (250 g a.i./100 kg), 0%; in the test with Puccinia recondita [2] (125 g a.i./100 kg), 2%; in the test with Puccinia recondita [2] (250 g a.i./100 kg), 1%; with Phakopsora pachyrhizi [3], 0%; in the test with Puccinia recondita [4] it was 0%. Besides, the Infected leaf area with Erysiphe graminis (125 g a.i./100 kg) stood at 0%; in the test on Erysiphe graminis (250 g a.i./100 kg) it was 0%; with Phakopsora pachyrhizi [5] (125 g a.i./100 kg seeds), 1%; in the test on Phakopsora pachyrhizi [5] (250 g a.i./100 kg seeds), 2%; with Septoria tritici [6] (25 g a.i./100 kg seeds), 1%; in the test on Septoria tritici [6] (50 g a.i./100 kg seeds) it was 0%. Moreover, the Infected leaf area was determined as 0% in the test with Septoria tritici [6] (100 g a.i./100 kg seeds), 7% in the test with Septoria tritici [7] (125 g a.i./100 kg) and 3% in the test on Septoria tritici [7] (250 g a.i./100 kg).

`O=C(Nc1ccccc1-c1ccc(Cl)cc1)c1cccnc1Cl` [Id.1]: the Infected leaf area in the test on Phakopsora pachyrhizi [3] is given as 40%.

With `Cn1cc(C(=O)Nc2ccccc2-c2cc(Cl)ccc2Cl)c(C(F)(F)F)n1` [Ia.255], the Infected leaf area in the test with Puccinia recondita [2] (125 g a.i./100 kg) is recorded as 0%; in the test with Puccinia recondita [2] (250 g a.i./100 kg), 0%; in the test on Puccinia recondita [4], 38%; with Erysiphe graminis (125 g a.i./100 kg), 0%; with Erysiphe graminis (250 g a.i./100 kg), 0%; in the test with Septoria tritici [7] (125 g a.i./100 kg), 3%. Moreover, the Infected leaf area in the test with Septoria tritici [7] (250 g a.i./100 kg) turned out to be 3%.

Turning to `Cn1cc(C(=O)Nc2ccccc2-c2cc(F)c(F)c(F)c2)c(C(F)(F)F)n1` [Ia.85], the Infected leaf area in the test on Puccinia recondita [2] (125 g a.i./100 kg) is 0%; in the test on Puccinia recondita [2] (250 g a.i./100 kg) it was 0%; in the test with Puccinia recondita [4], 11%; with Erysiphe graminis (125 g a.i./100 kg) it was 0%; in the test with Erysiphe graminis (250 g a.i./100 kg), 0%; with Septoria tritici [7] (125 g a.i./100 kg), 0%. For the same molecule, in the test with Septoria tritici [7] (250 g a.i./100 kg), the Infected leaf area was 0%.

As for `Cn1cc(C(=O)Nc2ccccc2-c2cc(F)cc(F)c2)c(C(F)(F)F)n1` [Ia.245], the Infected leaf area in the test with Puccinia recondita [2] (125 g a.i./100 kg) was determined as 0%; in the test with Puccinia recondita [2] (250 g a.i./100 kg) it was 0%; with Phakopsora pachyrhizi [3], 0%; in the test on Puccinia recondita [4], 19%; in the test on Erysiphe graminis (125 g a.i./100 kg) it was 0%; in the test on Erysiphe graminis (250 g a.i./100 kg) it was 0%. Also, the Infected leaf area in the test with Septoria tritici [7] (125 g a.i./100 kg) and with Septoria tritici [7] (250 g a.i./100 kg) was 0% each time.

`Cn1cc(C(=O)Nc2ccccc2-c2cc(F)c(F)c(F)c2)c(C(F)Cl)n1` (stereo not drawn) [Ia.211]: the Infected leaf area with Puccinia recondita [2] (125 g a.i./100 kg) is given as 0%; in the test with Puccinia recondita [2] (250 g a.i./100 kg), 0%; in the test on Phakopsora pachyrhizi [3], 3%; in the test on Erysiphe graminis (125 g a.i./100 kg) it was 0%; with Erysiphe graminis (250 g a.i./100 kg), 0%.

Consider `Cn1cc(C(=O)Nc2ccc(F)cc2-c2ccc(Cl)c(Cl)c2)c(C(F)F)n1` [Ia.110], for which the Infected leaf area with Phakopsora pachyrhizi [3] is recorded as 17%; in the test on Erysiphe graminis (125 g a.i./100 kg), 0%; in the test with Erysiphe graminis (250 g a.i./100 kg) it was 0%; in the test on Septoria tritici [7] (125 g a.i./100 kg), 3%; with Septoria tritici [7] (250 g a.i./100 kg), 7%.
